From article PMC6364417, “Kinase inhibitor library screening identifies synergistic drug combinations effective in sensitive and resistant melanoma cells” (Journal of Experimental & Clinical Cancer Research : CR, 2019)
Where two headings read alike, the source gives them in different places.

How the values were obtained:
A375 cells (parental) [1] = test: Dose-response curves and IC50, PrestoBlue cell viability, 72 h; assay type: cell-based, human; details: read-out: Half-maximal inhibitory concentration value (IC50), Mean
[2] = system: A375-XP cells (Vemurafenib-resistant); test: as above; assay type: cell-based, human; details: n.e. = did not suppress growth below 50% in the tested concentration range; for IC50: read-out: Half-maximal inhibitory concentration value (IC50), Mean
[3] = system: A375-GP cells (Dabrafenib-resistant); test: as above; assay type: cell-based, human; details: n.e. = did not suppress growth below 50% in the tested concentration range; for IC50: read-out: Half-maximal inhibitory concentration value (IC50), Mean
[4] = system: NHDF (normal human dermal fibroblasts); test: Dose-response curves and IC50 in non-cancer cells, cell viability, 72 h; details: for effect on healthy cells, cell viability (in words): fibroblasts (NHDF)
Description: (§1) The IC50 values (nM) were calculated as indicated in Methods.

[5] = system: NHEM (normal human epidermal melanocytes); test: as above; details: for effect on healthy cells, cell viability (in words): melanocytes (NHEM)
Description: as §1

Erk phosphorylation = test: Western blot, phospho-Erk; assay type: cell-based, human; details: A375 cells, 3 h treatment
Description: (§2) Cells were seeded at a density of 10^5 cells/well in 24-well plates (Greiner). 24 h post seeding, cells were treated with inhibitors at indicated amounts for 3 h and/or 24 h. Western blot analysis was performed as described before. The following primary antibodies were used: anti-phospho-CHK1 (Ser317) (Cell Signalling Technology, 1:1000), anti-CHK1 (Cell Signalling Technology, 1:1000), anti-phospho-cdc2 (Tyr15) (Cell Signalling Technology, 1:1000), anti-cdc2 (Cell Signalling Technology, 1:1000), anti-PARP (Cell Signalling Technology, 1:1000), anti-cleaved-PARP (Cell Signalling Technology, 1:1000), anti-phospho-Erk ([…]) (Cell Signalling Technology, 1:2000), anti-Erk1/2 (Santa Cruz, Erk1 = 1:1000, Erk2 = 1:2000), anti-phospho-Akt (Ser473) (Cell Signalling Technology, 1:1500), anti-Akt1/2 (Santa Cruz, 1:1000), anti-Vinculin (Abcam, 1:1000) and anti-Tubulin (Santa Cruz, 1:5000). HRP-labeled secondary antibodies were purchased from Cell Signaling Technology (Boston, MA).
(§3) Supplementary file 13046_2019_1038_MOESM6_ESM.pdf: Additional file 6: Figure S4. Western blot analysis for selected drug treatments and apoptosis assays in healthy and melanoma cells. […] Cells were treated for 3 h with indicated concentrations of inhibitors. […] P-cdc2 (CDK1), cdc2 (CDK1), p-Chk1 and Chk1 were detected after 3 h drug treatment, while PARP cleavage was detected after 24 h treatment. […]

501Mel cells (parental) [6] = test: Kinase inhibitor library screening, PrestoBlue cell viability, 1 or 10 μM, 72 h; details: 501Mel Parental, 72 h
Summary of the method: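 Readout: PrestoBlue signal on a monochromator plate reader, given as percent viability relative to untreated controls. Parental and drug-resistant (Vemurafenib XP, Dabrafenib GP) sublines were tested; at least duplicates per line.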

[7] = system: 501Mel-GP cells (Dabrafenib-resistant); test: as above; details: 501Mel GP, 72 h
[8] = system: 501Mel-XP cells (Vemurafenib-resistant); test: as above; details: 501Mel XP, 72 h
A375 cells (parental) [9] = test: as above; details: A375 Parental, 72 h
[10] = system: A375-GP cells (Dabrafenib-resistant); test: as above; details: A375 GP, 72 h
[11] = system: A375-XP cells (Vemurafenib-resistant); test: as above; details: A375 XP, 72 h
IGR37 cells (parental) [12] = test: as above; details: IGR37 Parental, 72 h
[13] = system: IGR37-GP cells (Dabrafenib-resistant); test: as above; details: IGR37 GP, 72 h
[14] = system: IGR37-XP cells (Vemurafenib-resistant); test: as above; details: IGR37 XP, 72 h
A375 cells = test: Synergy determination with the Chou-Talalay method (CompuSyn), cell viability 72 h; assay type: cell-based, human; details: 72 h cell viability, Chou-Talalay / Synergyfinder
Description: The Chou-Talalay method to determine possible synergistic effects of selected kinase inhibitor combinations was used as described in [19]. […] Cells were treated with either single inhibitors or combinations thereof at indicated amounts in technical triplicates. The amounts were pre-determined from each inhibitor’s IC50 value and inhibitors were assayed in a defined dilution series and at constant ratio when combined. […] Combination Index (CI) values showing either synergy (< 1) or antagonism (> 1) were calculated with the CompuSyn software (ComboSyn, Inc).

[15] = system: A375 parental cells expressing iRFP; test: Long-term inhibitor treatment, iRFP fluorescence proliferation monitoring; assay type: cell-based, human
Description: A375 parental and BRAFi-resistant cells, virally transduced with the near-infrared fluorescent protein (iRFP) were seeded at a density of 2500 cells/well in a 24-well plate (Greiner) in at least technical triplicates. Inhibitors, single or in combination, were added at the indicated amounts and replenished every 72 h for a duration of 76 days. To assess whether any remaining cells have become resistant to the treatment and would re-emerge, the drugs were removed and the cells underwent “drug holidays” for an additional 21 days. During the long-term treatment, cell proliferation was monitored bi-weekly on a LI-COR Odyssey Infrared Imaging System (LI-COR Biosciences). Fluorescence intensity was quantified with the Image Studio™ Lite software (LI-COR Biosciences).

PARP cleavage = test: Western blot, PARP cleavage in A375 cells; assay type: cell-based, human; details: A375, A375-XP, A375-GP; 24 h treatment
Description: Cells were seeded at a density of 10^5 cells/well in 24-well plates (Greiner). 24 h post seeding, cells were treated with inhibitors at indicated amounts for 3 h and/or 24 h. […] The following primary antibodies were used: anti-phospho-CHK1 (Ser317) (Cell Signalling Technology, 1:1000), anti-CHK1 (Cell Signalling Technology, 1:1000), anti-phospho-cdc2 (Tyr15) (Cell Signalling Technology, 1:1000), anti-cdc2 (Cell Signalling Technology, 1:1000), anti-PARP (Cell Signalling Technology, 1:1000), anti-cleaved-PARP (Cell Signalling Technology, 1:1000), anti-phospho-Erk (Tyr202/Tyr204) (Cell Signalling Technology, 1:2000), anti-Erk1/2 (Santa Cruz, Erk1 = 1:1000, Erk2 = 1:2000), anti-phospho-Akt (Ser473) (Cell Signalling Technology, 1:1500), anti-Akt1/2 (Santa Cruz, 1:1000), anti-Vinculin (Abcam, 1:1000) and anti-Tubulin (Santa Cruz, 1:5000). HRP-labeled secondary antibodies were purchased from Cell Signaling Technology (Boston, MA).

[16] = system: A375 cells (parental sensitive) tumors; test: In vivo assay, subcutaneous melanoma tumors in NSG mice; design: species or system NOD scid gamma (NSG) mice; details: NSG mice with A375 or A375-XP tumors, 8 days of daily treatment
Description: NOD scid gamma (NSG) mice were bred in-house and experiments were performed according to all applicable laws and regulations, after receiving approval by the institution’s animal experimentation ethics committee and the veterinarian service of the Ministry of Agriculture (Permit Number: 18-MDM-01). Single parental sensitive A375 cells (0.5 × 10^6 cells) and Vemurafenib-resistant A375-XP cells (2 × 10^6 cells) were resuspended in 100 μL of 1:1 mixed serum-free medium and matrigel (BD Biosciences) and injected subcutaneously in 6–8 week-old mice. […] Control mice received the respective vehicle by oral gavage and intraperitoneal injection. […] Statistical analysis was done using a two-way ANOVA followed by post-hoc Tukey’s multiple comparison tests.

IGR37 cells (parental) [17] = test: Dose-response curves and IC50, PrestoBlue cell viability, 72 h; details: Homo sapiens, IGR-37, 72 h, read-out: Half-maximal inhibitory concentration (IC50)
Description: (§4) All inhibitors used in this study were purchased from Selleck Chemicals (Houston, USA). They were dissolved in DMSO to a stock concentration of 10 mM according to the manufacturer’s instructions and stored at − 80 °C. […] Cell viability was measured with the PrestoBlue Cell Viability Reagent (ThermoFisher Scientific) on a CLARIOstar Monochromator microplate reader (BMG Labtech). Using the GraphPad Prism v5.04 software, the half-maximal inhibitor concentration values (IC50) were determined from the curve using the nonlinear log (inhibitor) vs response-variable slope (four parameters) equation. […] The IC50’s were determined for 3 biological replicates and are listed with their standard deviations.
(§5) Values represent the mean of at least three biological replicates; one representative curve of at least 3 biological replicates is depicted. _XP: cells resistant to Vemurafenib (red), _GP: cells resistant to Dabrafenib (green).

[18] = system: IGR37-XP cells (Vemurafenib-resistant); test: as above; details: Homo sapiens, 72 h, read-out: Half-maximal inhibitory concentration (IC50)
Description: as §4, §5

[19] = system: IGR37-GP cells (Dabrafenib-resistant); test: as above; details: Homo sapiens, 72 h, read-out: Half-maximal inhibitory concentration (IC50)
Description: as §4, §5

501Mel cells (parental) [20] = test: as above; details: Homo sapiens, 72 h, read-out: Half-maximal inhibitory concentration (IC50)
Description: as §4, §5

[21] = system: 501Mel-XP cells (Vemurafenib-resistant); test: as above; details: Homo sapiens, 72 h, read-out: Half-maximal inhibitory concentration (IC50)
Description: as §4, §5

[22] = system: 501Mel-GP cells (Dabrafenib-resistant); test: as above; details: Homo sapiens, 72 h, read-out: Half-maximal inhibitory concentration (IC50)
Description: as §4

P-Akt levels = test: Western blot, phospho-Akt; assay type: cell-based, human; details: A375 cells, 3 h treatment
Description: as §2, §3

[23] = Homo sapiens, A-375, n.e. = did not suppress growth below 50% in the tested concentration range
[24] = n.e. = did not suppress growth below 50% in the tested concentration range

Q: Which IC50 (A375 cells (parental) [1]; [23]) does the source give for CCCS(=O)(=O)Nc1ccc(F)c(C(=O)c2c[nH]c3ncc(-c4ccc(Cl)cc4)cc23)c1F [Vemurafenib] here?
A: 135 nM

Q: What about the “Half-maximal inhibitory concentration value (IC50), Mean” value [2] of the same compound?
A: n.e.

Q: And the “Half-maximal inhibitory concentration value (IC50), Mean” value [3]?
A: n.e.

Q: And the “effect on healthy cells, cell viability (in words)” value [4]?
A: did not have any effect

Q: And the “effect on healthy cells, cell viability (in words)” value [5]?
A: did not have any effect

Q: And the “Erk phosphorylation (in words)” value (Erk phosphorylation)?
A: inhibition of Erk phosphorylation by Vemurafenib was confirmed

Q: O=c1[nH]c2ccc(Cl)cc2c(N[C@@H]2CN3CCC2CC3)c1-c1nc2ccccc2[nH]1 [CHIR-124, reference compound] was tested. Which “cell viability (kinase inhibitor library screening)” value (501Mel cells (parental) [6]; 1μΜ) did it give?
A: 47.8%

Q: What about the “cell viability (kinase inhibitor library screening)” value (501Mel cells (parental) [6]; 10μΜ) of the same compound?
A: 0.9%

Q: And the “cell viability (kinase inhibitor library screening)” value ([7]; 1μΜ)?
A: 40.5%

Q: What about the “cell viability (kinase inhibitor library screening)” value ([7]; 10μΜ) of the same compound?
A: 0.146%

Q: What about the “cell viability (kinase inhibitor library screening)” value ([8]; 1μΜ) of the same compound?
A: 26.0%

Q: What about the “cell viability (kinase inhibitor library screening)” value ([8]; 10μΜ) of the same compound?
A: 0.156%

Q: What about the “cell viability (kinase inhibitor library screening)” value (A375 cells (parental) [9]; 10μΜ) of the same compound?
A: 2.4%

Q: And the “cell viability (kinase inhibitor library screening)” value (A375 cells (parental) [9]; 1μΜ)?
A: 23.5%

Q: And the “cell viability (kinase inhibitor library screening)” value ([10]; 1μΜ)?
A: 18.2%

Q: What about the “cell viability (kinase inhibitor library screening)” value ([10]; 10μΜ) of the same compound?
A: 1.5%

Q: What about the “cell viability (kinase inhibitor library screening)” value ([11]; 1μΜ) of the same compound?
A: 40.8%

Q: And the “cell viability (kinase inhibitor library screening)” value ([11]; 10μΜ)?
A: 1.5%

Q: And the “cell viability (kinase inhibitor library screening)” value (IGR37 cells (parental) [12]; 1μΜ)?
A: 57.6%

Q: What about the “cell viability (kinase inhibitor library screening)” value (IGR37 cells (parental) [12]; 10μΜ) of the same compound?
A: 1.0%

Q: What about the “cell viability (kinase inhibitor library screening)” value ([13]; 1μΜ) of the same compound?
A: 91.0%

Q: And the “cell viability (kinase inhibitor library screening)” value ([13]; 10μΜ)?
A: 2.3%

Q: What about the “cell viability (kinase inhibitor library screening)” value ([14]; 1μΜ) of the same compound?
A: 63.5%

Q: What about the “cell viability (kinase inhibitor library screening)” value ([14]; 10μΜ) of the same compound?
A: 1.6%

Q: And the IC50 (A375 cells (parental) [1]; [24])?
A: 233 nM

Q: What about the IC50 [2] of the same compound?
A: 321 nM

Q: And the IC50 [3]?
A: 278 nM

Q: And the “synergistic effects with the BRAF inhibitors Vemurafenib and/or Dabrafenib (in words)” value (A375 cells)?
A: synergistic effects only with Dabrafenib

Q: What about the “long-term cell growth under drug until day 76 (in words)” value ([15]; 150 nM, even with Dabrafenib (data not shown)) of the same compound?
A: not sufficient to prevent cells to grow back

Q: And the “long-term cell growth under drug until day 76 (in words)” value ([15]; 300 nM single treatment)?
A: killed most of the cells

Q: Which results are given for NC(=O)Nc1cc(-c2cccc(F)c2)sc1C(=O)N[C@H]1CCCNC1 [AZD7762]?
A: IC50 (A375 cells (parental) [1]; [23]): 311 nM; IC50 ([2]; Homo sapiens): 366 nM; IC50 ([3]; Homo sapiens): 299 nM; IC50 ([4]; Homo sapiens, NHDF, read-out: Half-maximal inhibitory concentration (IC50), NHDF Mean): 532 nM; effect on healthy cells, cell viability (in words) [4]: very modest effects; IC50 ([5]; Homo sapiens, Melanocyte, read-out: Half-maximal inhibitory concentration (IC50), NHEM Mean): 358 nM; effect on healthy cells, cell viability (in words) [5]: very modest effects; synergistic effects with the BRAF inhibitors Vemurafenib and/or Dabrafenib (in words) (A375 cells): clear synergistic effects; Cleavage of PARP (in words) (PARP cleavage): induced; body weight and side effects during treatment (in words) [16]: did not lose weight; IC50 (IGR37 cells (parental) [17]): 65 nM; IC50 [18]: 58 nM; IC50 [19]: 70 nM; IC50 (501Mel cells (parental) [20]): 306 nM; IC50 [21]: 188 nM; IC50 [22]: 426 nM

Q: What does the source list for CNC(=O)c1ccccc1Nc1nc(Nc2ccc(N3CCOCC3)cc2OC)ncc1Cl [TAE226]?
A: IC50 (A375 cells (parental) [1]; [24]): 489 nM; IC50 [2]: 176 nM; IC50 [3]: 301 nM; synergistic effects with the BRAF inhibitors Vemurafenib and/or Dabrafenib (in words) (A375 cells): Vemurafenib showed synergism; P-Akt levels (in words) (P-Akt levels): blocking P-Akt levels
